20 compounds from patent US20110015371A1 (Vertex Pharmaceuticals Incorporated, priority 1994, published 2011) can be followed below.

Where a name gives a salt, the structure may show the parent alone. Non-standard residues stand in square brackets, D forms with d. Residues, ends and D or L forms follow the SMILES beside them. *: point of attachment. Pro(4R-OPh) = O=C(O)[C@@H]1C[C@@H](Oc2ccccc2)CN1; Hyp = O=C(O)[C@@H]1C[C@@H](O)CN1; Bn = c1ccc(C*)cc1; Allyl = C=CC*

For this test, the system named is Human Peripheral Blood Mononuclear Cells (PBMC) or Enriched Adherent Mononuclear Cells. The experiment in a line: Cell assay: IL-1β assay with human PBMC or enriched adherent mononuclear cells. The test is classed as cell-based. Particulars: LPS-stimulated cells, mature IL-1β in supernatant by ELISA. The source says:
IL-1β Assay with a Mixed Population of Human Peripheral Blood Mononuclear Cells (PBMC) or Enriched Adherent Mononuclear Cells
Processing of pre-IL-1S by ICE can be measured in cell culture using a variety of cell sources. Human PBMC obtained from healthy donors provides a mixed population of lymphocyte subtypes and mononuclear cells that produce a spectrum of interleukins and cytokines in response to many classes of physiological stimulators. Adherent mononuclear cells from PBMC provides an enriched source of normal monocytes for selective studies of cytokine production by activated cells.
An initial dilution series of test compound in DMSO or ethanol is prepared, with a subsequent dilution into RPMI-10% FBS media (containing 2 mM L-glutamine, 10 mM HEPES, 50 U and 50 ug/ml pen/strep) respectively to yield drugs at 4× the final test concentration containing 0.4% DMSO or 0.4% ethanol. The final concentration of DMSO is 0.1% for all drug dilutions. A concentration titration which brackets the apparent Ki for a test compound determined in an ICE inhibition assay is generally used for the primary compound screen.
We generally test 5-6 compound dilutions and have performed the cellular component of the assay in duplicate, with duplicate ELISA determinations on each cell culture supernatant.
Buffy coat cells isolated from one pint human blood (yielding 40-45 ml final volume plasma plus cells) are diluted with media to 80 ml and LeukoPREP separation tubes (Becton Dickinson) are each overlaid with 10 ml of cell suspension. After 15 min centrifugation at 1500-1800×g, the plasma/media layer is aspirated and then the mononuclear cell layer is collected with a Pasteur pipette and transferred to a 15 ml conical centrifuge tube (Corning). Media is added to bring the volume to 15 ml, gently mix the cells by inversion and centrifuge at 300×g for 15 min. Resuspend the PBMC pellet in a small volume of media, count cells and adjust to 6×10^6 cells/ml.
For the cellular assay, add 1.0 ml of the cell suspension to each well of a 24-well flat bottom tissue culture plate (Corning), 0.5 ml test compound dilution and 0.5 ml LPS solution (Sigma #L-3012; 20 ng/ml solution prepared in complete RPMI media; final LPS concentration 5 ng/ml). The 0.5 ml additions of test compound and LPS are usually sufficient to mix the contents of the wells. Three control mixtures are run per experiment, with either LPS alone, solvent vehicle control, and/or additional media to adjust the final culture volume to 2.0 ml. The cell cultures are incubated for 16-18 hr at 37° C. in the presence of 5% CO2.
At the end of the incubation period, cells are harvested and transferred to 15 ml conical centrifuge tubes. After centrifugation for 10 min at 200×g, supernatants are harvested and transferred to 1.5 ml Eppendorf tubes. It may be noted that the cell pellet may be utilized for a biochemical evaluation of pre-IL-1S and/or mature IL-1β content in cytosol extracts by western blotting or ELISA with pre-IL-1β specific antisera.
PBMC are isolated and prepared as described above. Media (1.0 ml) is first added to wells followed by 0.5 ml of the PBMC suspension. After a one hour incubation, plates are gently shaken and nonadherent cells aspirated from each well. Wells are then gently washed three times with 1.0 ml of media and final resuspended in 1.0 ml media. The enrichment for adherent cells generally yields 2.5−3.0×10^5 cells per well. The addition of test compounds, LPS, cell incubation conditions and processing of supernatants proceeds as described above.
We have used Quantikine kits (R&D Systems) for measurement of mature IL-1β. Assays are performed according to the manufacturer's directions. Mature IL-1β levels of about 1-3 ng/ml in both PBMC and adherent mononuclear cell positive controls are observed. ELISA assays are performed on 1:5, 1:10 and 1:20 dilutions of supernatants from LPS-positive controls to select the optimal dilution for supernatants in the test panel.
(In general: ELISA stands for enzyme-linked immunosorbent assay.)

Setting [1] is: Homo sapiens, PBMC, Example 4 table.
Where [2] appears, read: Homo sapiens, PBMC, Example 6 table.
The mark [3] stands for this setting: Homo sapiens, PBMC, Example 2 table.

For orientation: IC50 means the concentration that gives 50% inhibition. `CC(C)[C@H](NC(=O)OCc1ccccc1)C(=O)N[C@@H](C)C(=O)N[C@H](CC(=O)O)C(=O)COCc1c(Cl)cccc1Cl` (mixture of isomers) [Compound 84a, (R,S)N-[N-(Phenylmethyloxy)carbonyl-valinyl-alaninyl]-3-amino-5-(2,6-dichlorophenylmethyloxy)-4-oxo-pentanoic acid] had an IC50 under setting [1] of 3.3 µM. Turning to `CC(C(=O)N[C@H](C=O)CC(=O)O)N1CCN(Cc2ccccc2)C[C@H](NC(=O)OCc2ccccc2)C1=O` (mixture of isomers) [Compound 114a, 3(S)-{2(R,S)-[4-Benzyl-7-oxo-6(S)-(N-benzyloxycarbonylamino)-[1,4]diazepan-1-yl]-propionylamino}-4-oxo-butyric acid trifluoroacetic acid salt], under setting [2], 3.8 µM corresponded to half-maximal inhibition (IC50). Still for that read-out and setting: in the case of `CC(C(=O)N[C@H](C=O)CC(=O)O)N1CCN(C(=O)CCc2ccccc2)C[C@H](NC(=O)CCc2ccccc2)C1=O` (mixture of isomers) [Compound 115, 4-Oxo-3(S)-{2(R,S)-[7-oxo-4-(3-phenyl-propionyl)-6(S)-(3-phenyl-propionylamino)-[1,4]diazepan-1-yl]-propionylamino}-butyric acid] it was 6 µM. As for `C[C@H](NC(=O)c1nc(CCCc2ccccc2)c[nH]1)C(=O)N[C@H](C=O)CC(=O)O` [Compound 20d, (3S)3-{N-[4-(3-Phenylpropyl)imidazole-2-carbonyl]-L-alaninyl}amino-4-oxo-butanoic acid], half-maximal inhibition under setting [1] (IC50) was put at 6.2 µM. For the compound `COc1ccc(CCCc2cnc(C(=O)N3C[C@H](Oc4ccccc4)C[C@H]3C(=O)N[C@H](C=O)CC(=O)O)[nH]2)cc1` [Compound 22e, 3(S)-[(1-{5-[3-(4-Methoxyphenyl)propyl]-1H-imidazole-2-carbonyl}-4(R)-phenoxypyrrolidine-2(S)-carbonyl)amino]-4-oxobutanoic acid], under setting [2], the IC50 is above 20 µM. `C[C@H](NC(=O)c1cnc(CCc2ccccc2)[nH]1)C(=O)N[C@H](C=O)CC(=O)O` [Compound 33a, (3S)3-{N-[2-(2-Phenylethyl)imidazole-4-carbonyl]-L-alaninyl}amino-4-oxobutanoic acid]: the IC50 under setting [3] worked out at 25 µM and half-maximal inhibition under setting [1] (IC50) required 25 µM. As for `C[C@H](NC(=O)c1cnc(Cc2ccccc2)[nH]1)C(=O)N[C@H](C=O)CC(=O)O` [Compound 33c, (3S)3-[N-(2-Benzylimidazole-4-carbonyl)-L-alaninyl]amino-4-oxobutanoic acid], the half-maximal inhibitory concentration (IC50) by setting is: under setting [3], 20 µM; under setting [1], 20 µM. As to `C[C@@H](C(=O)N[C@H](C=O)CC(=O)O)n1cccc(NC(=O)CCc2ccccc2)c1=O` [Compound 54a], the IC50 reads like this: (Example 2 table) 2 to 4 µM; under setting [1], 2.7 µM.

For `O=C[C@H](CC(=O)O)NC(=O)Cn1c(Cc2ccccc2)ccc(NC(=O)CCc2ccccc2)c1=O` [Compound 54b, 3(S)3-(6-Benzyl-1,2-dihydro-2-oxo-3-(3-phenylpropionyl)amino-1-pyridyl)acetylamino-4-oxobutanoic acid], the IC50 reads like this: under setting [1], 9.1 µM; under setting [2], 20 µM. Turning to `C=CCO[C@@H]1C[C@@H](C(=O)N[C@H](C=O)CC(=O)O)N(C(=O)[C@@H](NC(=O)[C@H](Cc2ccc(O)cc2)NC(C)=O)C(C)C)C1` [Compound 85, N-(N-Acetyl-tyrosinyl-valinyl-(4(R)-allyloxyprolinyl))-3(S)-amino-4-oxobutanoic acid] (Ac-YV[Hyp](Allyl)D-aldehyde), half-maximal inhibition under setting [2] (IC50) was put at 9.8 µM. That is a single-digit micromolar value. Still for that read-out and setting: in the case of `O=C(O)C[C@H](NC(=O)[C@@H]1CCc2ncc(NC(=O)CCc3ccccc3)c(=O)n21)C(=O)COC(=O)c1c(Cl)cccc1Cl` [Compound 102a, 2,6-Dichloro-benzoic acid 4-carboxy-2-oxo-(3S)-{[4-oxo-3-(3-phenyl-propionylamino)-4,6,7,8-tetrahydro-pyrrolo[1,2-a]pyrimidine-(6S)-carbonyl]-amino}-butyl ester] it was 4 µM; in that of `C[C@H](NC(=O)CN1C(=O)[C@@H](NC(=O)CCc2ccccc2)CN(C(=O)CCc2ccccc2)c2ccccc21)C(=O)C(=O)O` [Compound 106b, 2-Oxo-3(S)-{2-[2-oxo-5-(3-phenylpropionyl)-3(S)-(3-phenyl-propionyl-amino)-2,3,4,5-tetrahydrobenzo[b][1,4]diazepin-1-yl]acetylamino}butyric acid], 2.9 µM. The same measure, in the same setting: for `O=C(O)C[C@H](NC(=O)CN1C(=O)[C@@H](NC(=O)CCc2ccccc2)CN(C(=O)CCc2ccccc2)c2ccccc21)C(=O)COC(=O)c1c(Cl)cccc1Cl` [Compound 108a, 2,6-Dichlorobenzoic acid 4-carboxy-2-oxo-3(S)-{2-[2-oxo-5-(3-phenylpropionyl)-3(S)-(3-phenylpropionylamino)-2,3,4,5-tetrahydrobenzo[b][1,4]diazepin-1-yl]acetylamino}butyl ester] the value was 17.5 µM; for `C[C@@H](C(=O)N[C@@H](CC(=O)O)C(=O)COC(=O)c1c(Cl)cccc1Cl)n1cccc(NC(=O)CCc2ccccc2)c1=O` [Compound 130], 1.2 µM; for `O=C(O)C[C@H](NC(=O)[C@@H]1CCCN2C(=O)CC[C@H](NC(=O)CCc3ccccc3)C(=O)N12)C(=O)COC(=O)c1c(Cl)cccc1Cl` [Compound 136], 1 µM.

`CS(=O)(=O)N[C@H]1CCC(=O)N2CCC[C@@H](C(=O)N[C@@H](CC(=O)O)C(=O)COC(=O)c3c(Cl)cccc3Cl)N2C1=O` [Compound 138]: the IC50 under setting [2] came to 0.375 µM. Turning to `C[C@H](NC(=O)c1ncc[nH]1)C(=O)N[C@@H](CC(=O)O)C(=O)COC(=O)c1c(Cl)cccc1Cl` [Compound 142], under setting [2], 1.75 µM corresponded to half-maximal inhibition (IC50). Compound `CC(=O)N[C@@H](Cc1ccc(O)cc1)C(=O)N[C@H](C(=O)N1C[C@H](OCc2ccccc2)C[C@H]1C(=O)N[C@H](C=O)CC(=O)O)C(C)C` [Compound K, N-[N-Acetyl-tyrosinyl-valinyl-(4-benzyloxy)prolinyl]-3-amino-4-oxobutanoic acid] (Ac-YV[Hyp](Bn)D-aldehyde) returned an IC50 under setting [3] of 2 to 11 µM.

Consider `CC(=O)N[C@@H](Cc1ccc(O)cc1)C(=O)N[C@H](C(=O)N1C[C@H](Oc2ccccc2)C[C@H]1C(=O)N[C@H](C=O)CC(=O)O)C(C)C` [I, N-(N-Acetyl-tyrosinyl-valinyl-(4-phenoxyprolinyl))-3-amino-4-oxobutanoic acid] (Ac-YV[Pro(4R-OPh)]D-aldehyde), for which the IC50 under setting [3] came out at 2.6 µM. The same measure, in the same setting: for `CC(=O)N[C@@H](Cc1ccc(O)cc1)C(=O)N[C@H](C(=O)N1C[C@H](O)C[C@H]1C(=O)N[C@H](C=O)CC(=O)O)C(C)C` [J, N-[N-Acetyl-tyrosinyl-valinyl-(4-hydroxyprolinyl)]-3-amino-4-oxobutanoic acid] (Ac-YV[Hyp]D-aldehyde) the value was 5 to 7 µM.
